In patent US20240075046A1 (priority 2020, published 2024):
Entries after “also recorded” stand apart in the source; their conditions may differ.

What was measured:
ERα [1] = target: T1, ERα (Homo sapiens, UniProt P03372); assay: ERα protein level, western blot in MCF7 cells; type: cell-based; set-up: The intensity of ERα in the nucleus of MCF7 cells was reduced with time; endogenous in cells; host or cells: MCF7; details: 18 hours, single cannabinoids vs 1:25:1,000 combination, FIGS. 10A-10B
ERα [2] = target: T1, ERα; assay: Endometriosis model, estrogen receptor western blot in 12Z cell line; type: cell-based; set-up: endogenous in cells; host or cells: 12Z; details: 5 h, CF2 0.125 to 0.75 μg/mL
[3] = test system: AR, CDC25, GREB1, PGR and TFF1; assay: Expression of genes upregulated by estradiol binding to ERα, real-time PCR in MCF7 cells; type: cell-based; details: 18 hours, FIGS. 10D-10H
MCF7 cells [4] = type: cell-based
ESR1 = ESR1 expression level, real-time PCR in MCF7 cells; type: cell-based; details: 18 hours, FIG. 10C
Experimental: The expression level of ESR1, the gene encoding for ERα, using real-time PCR following 18 hours of CANN14 treatment was examined. RNA was extracted from 5×10^5 cells and isolated using TRI reagents (Sigma, UK) according to the manufacturer's protocol. The RNA was reverse transcribed with Maxima First Strand cDNA synthesis kit (Life Technologies, Burlington, Canada) and RT-qPCR was preformed using Taq-Man (Life Technologies Ltd, UK). The fold change of calculated compared to the housekeeping gene 18S, using the formula 2^(−ΔΔCT). DMSO was used as a control. […] The activity of ERα as a transcriptional regulator by assessing its binding to Estrogen Response Elements (ERE) following CANN14 treatment was then examined. MCF7 cells were transfected with ERE-luciferase plasmid and luciferase activity was measured.
Next, the effect of the three identified cannabinoids on ERα expression and activity was examined. ERα protein level in MCF7, T47D, and ZR-75-1 cells was measured following 18 hours treatment with either THC, CBN or CF2, separately or in combinations (FIGS. 7A-7B, 8A-8B, and 9A-9B, respectively). […] ESR1 expression level was lowest following treatment with CF2 alone (FIG. 10C).

[5] = test system: Immortalized Human Endometriotic Cell Line (12Z); assay: Endometriosis model, Annexin V assay, cell viability; type: cell-based; details: 12Z cells; 24 hours; CF2 concentration of 1 μg/mL
Experimental: To determine the therapeutic effects of CF2 on endometriosis, an Immortalized Human Endometriotic Cell Line (12Z) was used. Cells were incubated in a 12 well plate, each containing 1×10^6 cells. The cells were treated with either vehicle, or CF2 (0.125 to 1 μg/mL each) for 24 hours. Apoptosis was assessed using the Annexin V assay as detailed above. Data are presented as mean±S.E.M (n=3) and statistically analyzed by two-way ANOVA (*p<0.05, ****p<0.0001).

MCF7 cells [6] = details: extracts 4 μg/ml, 24 hours, tamoxifen 5 μM, alone or combined
[7] = test system: cleaved caspase-3 in MCF7 cells; assay: Cleaved caspase-3 western blot; type: cell-based; details: 8 hours, CANN14 4 μg/ml, tamoxifen 5 μM, relative to DMSO control
MCF7 cells [8] = assay: In-vivo mouse model, subcutaneous MCF7 ectopic tumor; details: nude mice, MCF7 tumors; IP three times weekly; CANN14 25 mg/kg, tamoxifen 2 mg/kg
T47D cells = assay: Apoptosis by Annexin V/PI staining, flow cytometry; type: cell-based; details: CANN14 4 μg/ml, tamoxifen 5 μM or combination
[9] = test system: cleaved caspase-3 in ZR-75-1 cells; assay: Cleaved caspase-3 western blot; type: cell-based; details: 8 hours, CANN14 4 μg/ml, tamoxifen 5 μM, relative to DMSO control
[10] = test system: cleaved caspase-3 in T47D cells; assay: Cleaved caspase-3 western blot; type: cell-based; details: 8 hours, CANN14 4 μg/ml, tamoxifen 5 μM, relative to DMSO control
ZR-75-1 cells = assay: Apoptosis by Annexin V/PI staining, flow cytometry; type: cell-based; details: CANN14 4 μg/ml, tamoxifen 5 μM or combination

T1 sequence (P03372 whole entry): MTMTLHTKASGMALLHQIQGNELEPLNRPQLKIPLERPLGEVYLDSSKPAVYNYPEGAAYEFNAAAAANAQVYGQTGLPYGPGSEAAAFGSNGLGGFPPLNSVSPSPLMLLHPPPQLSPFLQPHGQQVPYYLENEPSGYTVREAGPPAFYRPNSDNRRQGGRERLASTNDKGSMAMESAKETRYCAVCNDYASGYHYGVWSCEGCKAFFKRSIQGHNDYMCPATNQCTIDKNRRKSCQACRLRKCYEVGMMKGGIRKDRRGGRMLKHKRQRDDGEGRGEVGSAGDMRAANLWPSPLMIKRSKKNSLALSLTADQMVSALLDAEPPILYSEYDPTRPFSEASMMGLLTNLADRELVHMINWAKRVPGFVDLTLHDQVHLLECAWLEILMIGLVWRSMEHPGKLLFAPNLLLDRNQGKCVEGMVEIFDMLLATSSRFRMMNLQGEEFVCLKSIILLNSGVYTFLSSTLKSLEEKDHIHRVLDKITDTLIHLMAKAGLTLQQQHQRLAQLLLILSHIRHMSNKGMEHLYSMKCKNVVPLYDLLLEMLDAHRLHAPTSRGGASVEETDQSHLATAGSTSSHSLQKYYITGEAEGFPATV

Row | Structure (SMILES) | ERα protein level (ERα [1]) | ERα protein level (ERα [2]) | expression levels of ERα target genes [3] | apoptotic effect compared with the original 1:25:1,000 combination of CF2, CBN, and THC (MCF7 cells [4]) | apoptotic effect compared with the CANN14 whole extract (MCF7 cells [4]; MCF7 cells, higher concentrations of CF2, in combination with tamoxifen, FIG. 4G) | ESR1 expression level (ESR1) | cell viability (% Live cells) [5] | % Cell death (MCF7 cells [6]) | cleaved caspase-3, normalized intensity (treatment/control) [7] | ectopic tumor volume / tumor size (MCF7 cells [8]) | % Apoptosis (T47D cells) | cleaved caspase-3, normalized intensity (treatment/control) [9] | cleaved caspase-3, normalized intensity (treatment/control) [10] | % Apoptosis (MCF7 cells [4]; MCF7 cells, CANN14 4 μg/ml, tamoxifen 5 μM or combination) | % Apoptosis (ZR-75-1 cells)
1 | CCCCCc1cc(O)c(C/C=C(/C)CCC=C(C)C)c(O)c1OC(C)=O [CF2] | significantly reduced the most; also recorded: reduces ERα protein level | significantly reduced; also recorded: reduces | reduced to the lowest level compared to the control | same apoptotic effect as the original combination of the three phytocannabinoids | significantly superior to the CANN14 whole extract | lowest | statistically significant reduction in cell viability; also recorded: reduces cell viability | – | – | – | – | – | – | – | –
2 | CC/C(=C(\c1ccccc1)c1ccc(OCCN(C)C)cc1)c1ccccc1 [tamoxifen] | – | – | – | – | – | – | – | did not affect the viability of the cells | increased induction of cleaved caspase-3 | trend of smaller tumor sizes | not affected | increased induction of cleaved caspase-3 | increased induction of cleaved caspase-3 | not affected | not affected
3 | CCCCCc1cc(O)c2c(c1)OC(C)(C)c1ccc(C)cc1-2 [CBN, cannabinol, reference compound] | – | – | reduced to the lowest level compared to the control | – | – | – | – | – | – | – | – | – | – | – | –
